Assay results: patent publication US12459951B2, “Compounds that interact with RAS superfamily proteins for treatment of cancers, inflammatory diseases, rasopathies, and fibrotic disease” (SHY Therapeutics, LLC, priority 2022, dated 2025)
Counter-ions that a name gives are not always drawn.

Legend:
[1] = tested on: MiaPaca-2 (expressing KRAS G12C mutant); assay: Proliferation Assay (Cell Viability Assay); format: cell-based; settings: Homo sapiens, MIA PaCa-2; read-out: Proliferation in MiaPaca-2: IC50
How it was run: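 After 2–4 days' exposure at 37 °C, 5% CO2 to a single 10 μM final concentration or a dilution series (IC50), percent proliferation inhibition was derived from CellTiter 96 Aqueous One viability readings. The medium contained 0.3% DMSO and 10% FBS. KRAS G12C MiaPaca-2 cells were plated at 2000–5000/well the day before.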

Erk1/2 phosphorylation = assay: Erk1/2 Phosphorylation Assay (western blot), Panc-1; format: cell-based, human; settings: at 10 μM, * = activation
How it was run: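 Phospho-Erk1/2 (Thr202/Tyr204) was detected by western blot in lysates of Panc-1 cells (KRas G12D). These had 6 h, 37° C exposure to 10 μM compound or a dilution series for IC50, in 0.3% DMSO. Cells were either starved overnight in 0.5% FBS with a 15-min 1.5 ng/ml EGF pulse, or kept unstimulated in 10% FBS.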

Compound	IC50 [1] [nM]	% inh of Erk1/2 phosphorylation in Panc-1 (Erk1/2 phosphorylation)
CO[C@H]1CC[C@@H](Nc2nc(-c3nccn3C)nn3cc(-c4ccn(C(C)C)n4)c(C)c23)C1 (racemic) [Compound 1, rac 6-(1-Isopropyl-1H-pyrazol-3-yl)-N-((1R,3S)-3-methoxycyclopentyl)-5-methyl-2-(1-methyl-1H-imidazol-2-yl)pyrrolo[2,1-f][1,2,4]triazin-4-amine]	> 1000	0 (0% inhibition)
CCc1nc(Nc2nc(-c3nccn3C)nn3cc(-c4ccn(C(C)C)n4)c(C)c23)nn1C [Compound 76, N-(5-Ethyl-1-methyl-1H-1,2,4-triazol-3-yl)-6-(1-isopropyl-1H-pyrazol-3-yl)-5-methyl-2-(1-methyl-1H-imidazol-2-yl)pyrrolo[2,1-f][1,2,4]triazin-4-amine]	< 150	0 (0% inhibition)
COc1cccnc1Nc1nc(-c2nccn2C)nn2cc(-c3ccn(C(C)C)n3)c(C)c12 [Compound 89, 6-(1-Isopropyl-1H-pyrazol-3-yl)-N-(3-methoxypyridin-2-yl)-5-methyl-2-(1-methyl-1H-imidazol-2-yl)pyrrolo[2,1-f][1,2,4]triazin-4-amine]	< 150	D* (85-100% activation)
Cn1ccnc1-c1nc(O)c2c(-c3ccccc3)ccn2n1 [Compound 39, 2-(1-Methyl-1H-imidazol-2-yl)-5-phenylpyrrolo[2,1-f][1,2,4]triazin-4-ol]	> 1000	0 (0% inhibition)
CC(C)n1ccc(-c2cn3nc(-c4nccn4C)nc(O)c3c2-c2ccccc2)n1 [Compound 17, 6-(1-Isopropyl-1H-pyrazol-3-yl)-2-(1-methyl-1H-imidazol-2-yl)-5-phenylpyrrolo[2,1-f][1,2,4]triazin-4-ol]	> 1000	A (1-25% inhibition)
COC1CCCN(c2nc(-c3nccn3C)nn3cc(-c4ccn(C(C)C)n4)c(C)c23)C1 (racemic) [Compound 4, rac 6-(1-Isopropyl-1H-pyrazol-3-yl)-5-methyl-2-(1-methyl-1H-imidazol-2-yl)-4-(3-(oxo-γ6-methyl)piperidin-1-yl)pyrrolo[2,1-f][1,2,4]triazine]	> 1000	D (85-100% inhibition)
COCC1CCN(c2nc(-c3nccn3C)nn3cc(-c4ccn(C(C)C)n4)c(C)c23)C1 (racemic) [Compound 2, rac 6-(1-Isopropyl-1H-pyrazol-3-yl)-4-(3-(methoxymethyl)pyrrolidin-1-yl)-5-methyl-2-(1-methyl-1H-imidazol-2-yl)pyrrolo[2,1-f][1,2,4]triazine]	> 1000	B (26-49% inhibition)
Cc1c(-c2ccn(C(C)C)n2)cn2nc(-c3nccn3C)nc(Nc3noc(C4CC4)n3)c12 [Compound 75, 5-Cyclopropyl-N-(6-(1-isopropyl-1H-pyrazol-3-yl)-5-methyl-2-(1-methyl-1H-imidazol-2-yl)pyrrolo[2,1-f][1,2,4]triazin-4-yl)-1,2,4-oxadiazol-3-amine]	> 1000	B (26-49% inhibition)
COc1cnc(Nc2nc(-c3nccn3C)nn3cc(-c4ccn(C(C)C)n4)c(C)c23)cn1 [Compound 83, 6-(1-Isopropyl-1H-pyrazol-3-yl)-N-(5-methoxypyrazin-2-yl)-5-methyl-2-(1-methyl-1H-imidazol-2-yl)pyrrolo[2,1-f][1,2,4]triazin-4-amine]	150 to 500	D* (85-100% activation)
COc1nccc(Nc2nc(-c3nccn3C)nn3cc(-c4ccn(C(C)C)n4)c(C)c23)n1 [Compound 86, 6-(1-Isopropyl-1H-pyrazol-3-yl)-N-(2-methoxypyrimidin-4-yl)-5-methyl-2-(1-methyl-1H-imidazol-2-yl)pyrrolo[2,1-f][1,2,4]triazin-4-amine]	150 to 500	D* (85-100% activation)
COC[C@@H]1CC[C@@H]1CNc1nc(-c2nccn2C)nn2cc(-c3ccn(C(C)C)n3)c(C)c12 (racemic) [Compound 3, rac 6-(1-Isopropyl-1H-pyrazol-3-yl)-N-(((1S,2R)-2-(methoxymethyl)cyclobutyl)methyl)-5-methyl-2-(1-methyl-1H-imidazol-2-yl)pyrrolo[2,1-f][1,2,4]triazin-4-amine]	> 1000	D (85-100% inhibition)
COc1ncncc1Nc1nc(-c2nccn2C)nn2cc(-c3ccn(C(C)C)n3)c(C)c12 [Compound 88, 6-(1-Isopropyl-1H-pyrazol-3-yl)-N-(4-methoxypyrimidin-5-yl)-5-methyl-2-(1-methyl-1H-imidazol-2-yl)pyrrolo[2,1-f][1,2,4]triazin-4-amine]	> 1000	0 (0% inhibition)
COCCNc1nc(-c2nccn2C)nn2cc(-c3ccn(C(C)C)n3)c(C)c12 [Compound 5, 6-(1-Isopropyl-1H-pyrazol-3-yl)-N-(2-methoxyethyl)-5-methyl-2-(1-methyl-1H-imidazol-2-yl)pyrrolo[2,1-f][1,2,4]triazin-4-amine]	> 1000	0 (0% inhibition)
COCc1noc(Nc2nc(-c3nccn3C)nn3cc(-c4ccn(C(C)C)n4)c(C)c23)n1 [Compound 82, N-(6-(1-Isopropyl-1H-pyrazol-3-yl)-5-methyl-2-(1-methyl-1H-imidazol-2-yl)pyrrolo[2,1-f][1,2,4]triazin-4-yl)-3-(methoxymethyl)-1,2,4-oxadiazol-5-amine]	< 150	A* (1-25% activation)
CO[C@H]1CC[C@@H](Nc2nc(-c3nccn3C)nn3cc(-c4ccn(C(C)C)n4)c(-c4ccccc4)c23)C1 (racemic) [Compound 18, rac 6-(1-Isopropyl-1H-pyrazol-3-yl)-N-((1R,3S)-3-methoxycyclopentyl)-2-(1-methyl-1H-imidazol-2-yl)-5-phenylpyrrolo[2,1-f][1,2,4]triazin-4-amine hydrochloride]	> 1000	C (50-84% inhibition)
Cc1c(-c2ccn(C(C)C)n2)cn2nc(-c3nccn3C)nc(Nc3cn(C(C)C)nn3)c12 [Compound 78, N-(1-Isopropyl-1H-1,2,3-triazol-4-yl)-6-(1-isopropyl-1H-pyrazol-3-yl)-5-methyl-2-(1-methyl-1H-imidazol-2-yl)pyrrolo[2,1-f][1,2,4]triazin-4-amine]	150 to 500	D* (85-100% activation)
COc1ncc(Nc2nc(-c3nccn3C)nn3cc(-c4ccn(C(C)C)n4)c(C)c23)cn1 [Compound 80, 6-(1-Isopropyl-1H-pyrazol-3-yl)-N-(2-methoxypyrimidin-5-yl)-5-methyl-2-(1-methyl-1H-imidazol-2-yl)pyrrolo[2,1-f][1,2,4]triazin-4-amine]	> 1000	D* (85-100% activation)
COCCO[C@H]1C[C@H](Nc2nc(-c3nccn3C)nn3cc(-c4ccn(C(C)C)n4)c(C)c23)C1 [Compound 92, 6-(1-Isopropyl-1H-pyrazol-3-yl)-N-((1r,3r)-3-(2-methoxyethoxy)cyclobutyl)-5-methyl-2-(1-methyl-1H-imidazol-2-yl)pyrrolo[2,1-f][1,2,4]triazin-4-amine]	> 1000	A* (1-25% activation)
Cc1ccn2nc(-c3nccn3C)nc(N)c12.O=C(O)C(F)(F)F [Compound 37, 5-Methyl-2-(1-methyl-1H-imidazol-2-yl)pyrrolo[2,1-f][1,2,4]triazin-4-amine trifluoroacetic acid salt]	> 1000	0 (0% inhibition)
COc1cccc(-c2cn3nc(-c4nccn4C)nc(N[C@@H]4CC[C@H](OC)C4)c3c2-c2ccccc2)c1C (racemic) [Compound 271, rac 6-(3-Methoxy-2-methylphenyl)-N-((1R,3S)-3-methoxycyclopentyl)-2-(1-methyl-1H-imidazol-2-yl)-5-phenylpyrrolo[2,1-f][1,2,4]triazin-4-amine]	150 to 500	D (85-100% inhibition)
COc1cccc(-c2cn3nc(-c4nccn4C)nc(N[C@@H]4CC[C@@H](OC)C4)c3c2-c2ccccc2)c1Cl.Cl (racemic) [Compound 34, rac 6-(2-Chloro-3-methoxyphenyl)-N-((1R,3R)-3-methoxycyclopentyl)-2-(1-methyl-1H-imidazol-2-yl)-5-phenylpyrrolo[2,1-f][1,2,4]triazin-4-amine hydrochloride]	510 to 1000	D (85-100% inhibition)
COCc1csc(Nc2nc(-c3nccn3C)nn3cc(-c4ccn(C(C)C)n4)c(C)c23)n1 [Compound 79, N-(6-(1-Isopropyl-1H-pyrazol-3-yl)-5-methyl-2-(1-methyl-1H-imidazol-2-yl)pyrrolo[2,1-f][1,2,4]triazin-4-yl)-4-(methoxymethyl)thiazol-2-amine]	< 150	D* (85-100% activation)
COc1ncccc1Nc1nc(-c2nccn2C)nn2cc(-c3ccn(C(C)C)n3)c(C)c12 [Compound 85, 6-(1-Isopropyl-1H-pyrazol-3-yl)-N-(2-methoxypyridin-3-yl)-5-methyl-2-(1-methyl-1H-imidazol-2-yl)pyrrolo[2,1-f][1,2,4]triazin-4-amine]	> 1000	C (50-84% inhibition)
